One data set deals with CDC25C. As to the kind of experiment: Western blot, CDC25C. The class given is cell-based, human. To be noted: SGC-7901, 1, 2 and 4 μM, 48 h. As to the method:
(§1) An equivalent volume of 5 × SDS-sample buffer was added to cell lysates and boiled for 10 min. The supernatants were subjected to electrophoresis on SDS-PAGE gels and transferred to PVDF membrane by using a Bio-Rad apparatus. Membranes were blocked for 3 h at room temperature in TBST containing 5% non-fat dried milk and probed overnight at 4 °C with antibodies. CyclinD1 (abcam, ab134175, 1:10000), CDC25A (abcam, ab156574, 1:1000), CDC25C (abcam, ab32051, 1:1000), bcl-2 (abcam, ab32124,1:1000), bax (abcam, ab32503, 1:1000), PARP (abcam, ab191217, 1:1000), γH2AX (abcam, ab81299, 1:5000), dyskerin (abcam, ab156877, 1:1000), NHP2 (abcam, ab180498, 1:1000), NOP10 (abcam, ab133726, 1:1000) antibody was performed with rabbit primary antibody. Otherwise, β-actin (ZSGB-BIO, 1:1000) detection was performed with mouse primary antibody which was served as internal controls. Protein bands of β-actin was visualised using peroxidase-labeled goat anti-mouse and others were visualised using peroxidase-labeled goat anti-rabbit secondary antibody (1:5000 dilution, 1 h, room temperature), and the protein expression signals were detected by the BeyoECL Plus (Beyotime).

The test system of data set [1] is human gastric cancer cells SGC-7901. In words: MTT anticancer assay, SGC-7901. The class given is cell-based. How it is done:
The MTT was purchased from Sigma. Cell Cycle Analysis Kit and Apoptosis Analysis Kit were purchased from Bestbio (China). Mitochondrial membrane potential assay kit with JC-1 was purchased from Beyotime (China). All the materials were used as received without further purification unless noted specifically. The cell culture was maintained on DMEM medium (Hyclone, US) supplemented with 10% fetal bovine serum (Sijiqing, China), 100 U/mL penicillin and 100 µg/mL streptomycin in 25-cm^2 culture flasks at 37 °C humidified atmosphere with 5% CO2. Drugs were dissolved in DMSO and filtered through 0.22-µm pore-size filter units before addition to cell line appropriate media. When tumor cells were grown to log phase, diluting to 5 × 10^4 cells mL^−1 with the complete medium, 100 µL of the obtained cell suspension was added to each well of 96-well culture plates. The subsequent incubation was performed at 37 °C, 5% CO2 atmosphere for 48 h before subjecting to anti-proliferation assessment. After 48-h exposure period, 20 µL of PBS containing 5 mg·mL^−1 of MTT was added to each well. After 4 h, the medium was replaced by 150 µL DMSO to dissolve the purple formazan crystals produced. […] The data represented the mean of three experiments in triplicate and were expressed as means ± SD.

Data set [2] can be described thus: Octanol water partition coefficient, shake flask. The class given is physicochemical. The conditions noted are these: octanol/PBS pH 7.4, 37 °C. How it is done:
Octanole water partition coefficients was measured by the method of shake flask with slight modification. The aqueous phase was replaced by PBS (pH 7.4). First, the phase of octanol and the aqueous were saturated with each other. Then, the mixture containing title compounds was shaken at 37 °C. After 24 h, the mixture was centrifuged at 4000 rpm for 30 min, followed by the measured with ultraviolet spectrophotometer. At last, logP values were calculated.

The next data set relates to dyskerin. As to the kind of experiment: Western blot, dyskerin. The conditions noted are these: SGC-7901, 1, 2 and 4 μM, 48 h. The class given is cell-based, human. As to the method:
as §1
Background: In western blotting, separated proteins are transferred to a membrane and probed.

For another data set, the system named is human glioma cell U87. As to the kind of experiment: MTT anticancer assay, U87. The format is cell-based. The conditions noted are these: 48 h exposure, mean ± SD, dash = footnote d 'None'. As to the method:
(§2) The MTT was purchased from Sigma. Cell Cycle Analysis Kit and Apoptosis Analysis Kit were purchased from Bestbio (China). Mitochondrial membrane potential assay kit with JC-1 was purchased from Beyotime (China). All the materials were used as received without further purification unless noted specifically. The cell culture was maintained on DMEM medium (Hyclone, US) supplemented with 10% fetal bovine serum (Sijiqing, China), 100 U/mL penicillin and 100 µg/mL streptomycin in 25-cm^2 culture flasks at 37 °C humidified atmosphere with 5% CO2. Drugs were dissolved in DMSO and filtered through 0.22-µm pore-size filter units before addition to cell line appropriate media. When tumor cells were grown to log phase, diluting to 5 × 10^4 cells mL^−1 with the complete medium, 100 µL of the obtained cell suspension was added to each well of 96-well culture plates. The subsequent incubation was performed at 37 °C, 5% CO2 atmosphere for 48 h before subjecting to anti-proliferation assessment. After 48-h exposure period, 20 µL of PBS containing 5 mg·mL^−1 of MTT was added to each well. After 4 h, the medium was replaced by 150 µL DMSO to dissolve the purple formazan crystals produced. The absorbance at 492 nm of each well was measured on an ELISA plate reader. The data represented the mean of three experiments in triplicate and were expressed as means ± SD. The IC50 value was defined as the concentration at which 50% of the cells could survive. The following human tumor cell lines were used in the assay: human gastric cancer cells SGC-7901, human liver cancer cell SMMC-7721 and HepG2, human cervical cancer cell Hela and human glioma cell U87.

The test system of another data set is SGC-7901 cells. As to the kind of experiment: Annexin V-FITC/PI apoptosis analysis by flow cytometry. The format is cell-based, human. The conditions noted are these: 48 h, control 3.06%. As to the method: Apoptosis was detected by flow cytometric analysis of annexin V staining. Annexin V-FITC/PI assay was performed according to previously described. First, adherent SGC-7901 cells were harvested and suspended in the annexin-binding buffer (1 × 10^6 cells/mL). Then, cells were incubated with V-FITC buffer and incubated with annexin V-FITC for 15 min and then stained by PI for 5 min at 4 °C in the dark, immediately analyzed by flow cytometry. The data are presented as biparametric dot plots showing PI red fluorescence versus annexin V-FITC green fluorescence.

The test system of data set [3] is human liver cancer cell SMMC-7721. In words: MTT anticancer assay, SMMC-7721. The class given is cell-based. The conditions noted are these: 48 h exposure, mean ± SD. How it is done: as §2
Data set [4] concerns DEN-induced rat hepatic tumor. As to the kind of experiment: In vivo tumor model, DEN-induced rat hepatic tumor (HE histopathology). The conditions noted are these: DEN-induced SD rats, 50 mg·kg−1 orally once a day, 10 weeks. How it is done: SD rats, male, 120 ∼ 160 g. 120 rats were divided randomly into two groups containing 12 normal rats and 108 DEN model rats. Rats were gavaged daily with DEN 8 mg/kg, once a day, 6 days a week. Normal saline rats were given the same volume, molding to 10 weeks. 60 model rats were randomly divided into five groups, 12 rats in each group, continued to give DEN; normal rats were given normal saline, molding to 16 week, stopped giving DEN. Compound 5i treatment group from the 10th week, 50 mg·kg^−1 was orally given, once a day, for 10 consecutive weeks. Similar parts of left lobe of liver were taken and fixed by 4% polyformaldehyde solution, embedded in paraffin, sliced and HE stained, for histopathological observation.

Another data set deals with γH2AX. As to the kind of experiment: Western blot, γH2AX. To be noted: SGC-7901, 1, 2 and 4 μM, 48 h. The format is cell-based, human. How it is done:
as §1

The results in this text go back to paper PMC6104605, “Discovery of new chromen-4-one derivatives as telomerase inhibitors through regulating expression of dyskerin” (Journal of Enzyme Inhibition and Medicinal Chemistry, 2018).

`COc1cc(OC)c2c(=O)c(OCCCCN3CCN(C(=O)c4ccncc4)CC3)c(-c3cc(OC)c(OC)c(OC)c3)oc2c1` [Compound 5i, 3-(4-(4-isonicotinoylpiperazin-1-yl)butoxy)-5,7-dimethoxy-2-(3,4,5-trimethoxyphenyl)-4H-chromen-4-one]: the “expression of CAC25C (western blot)” value in the data set with CDC25C is listed as “significantly decrease”. Moreover, the “activity against SGC-7901 cells (in words)” value in [1] was “good activity”. Also, the IC50 (commonly the concentration needed to halve the response being measured) in data set [1] (Homo sapiens, SGC-7901, MTT, 48 h exposure, mean ± SD) turned out to be 1350 ± 170 nM; in the data set on human glioma cell U87 it was 2500 ± 110 nM; in [3], 1330 ± 140 nM. Moreover, the logP at 24 h in data set [2] (octanol/PBS (pH 7.4), pH 7.4, shake flask, read-out: Log p (octanole water partition coefficient)) amounted to 3.01. Also, the “Log p (octanole water partition coefficient)” value in data set [2] (shake flask, 24 h) came to 2.81. The “protein level of dyskerin (western blot)” value in the data set on dyskerin is recorded as “significantly reduced”. In addition, the Apoptosis ratio is given as 12.47% in the data set with SGC-7901 cells (SGC-7901, 1 µM); 26.3% in the data set with SGC-7901 cells (SGC-7901, 2 µM); 48.7% in the data set with SGC-7901 cells (SGC-7901, 4 µM). Further, the “pathological changes of rat hepatic tumor (HE staining)” value in data set [4] is “significantly improve pathological changes”. In the data set on γH2AX, the “expression of γH2AX (western blot)” value is reported as “significantly decrease”.
